Laboratory results: US8722849B2, “Polypeptides” (Novo Nordisk A/S, priority 2011, dated 2014)
In brackets after ≈: the same amount, converted by molar mass. Like-named read-outs stand apart in the source and are kept apart here. Starred links: 1 amine or outer side, 2 acyl side, 3 side chain; linkers in the order of their positions; H or OH if unused. Positions of bridges follow the written chain, without caps; N, C: chain ends. Residues, ends and D or L forms follow the SMILES beside them. *: point of attachment. C20 diacid = O=C(O)CCCCCCCCCCCCCCCCCCC(=O)*; γGlu = O=C(O)[C@H](CCC(=O)[*:2])N[*:1]

Assays:
[1] = molecular target: T1, human amylin receptor (amylin 3(a) receptor: human calcitonin receptor + RAMP-3) (Homo sapiens, UniProt O60896+P30988); experiment: Assay (II)a functional CRE-luciferase assay, human amylin receptor; format: cell-based; settings: Table 2; BHK amylin 3(a)-receptor/CRE-luc cells
T1 construct: expressed in transfected cells; host or cells: BHK570
T1 sequence (P30988 25-474): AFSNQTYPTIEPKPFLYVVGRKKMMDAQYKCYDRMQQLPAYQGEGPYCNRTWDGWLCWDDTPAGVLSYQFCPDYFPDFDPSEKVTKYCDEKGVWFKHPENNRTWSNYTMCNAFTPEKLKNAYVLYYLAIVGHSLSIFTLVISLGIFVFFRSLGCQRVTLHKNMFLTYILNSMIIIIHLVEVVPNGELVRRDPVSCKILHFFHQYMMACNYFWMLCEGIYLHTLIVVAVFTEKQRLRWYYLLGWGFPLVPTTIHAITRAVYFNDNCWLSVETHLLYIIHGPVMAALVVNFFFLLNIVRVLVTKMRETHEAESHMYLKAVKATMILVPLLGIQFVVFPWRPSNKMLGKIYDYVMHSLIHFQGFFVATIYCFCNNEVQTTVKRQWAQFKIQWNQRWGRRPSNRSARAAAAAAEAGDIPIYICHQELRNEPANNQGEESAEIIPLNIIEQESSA
T1 sequence (O60896 24-148 partner): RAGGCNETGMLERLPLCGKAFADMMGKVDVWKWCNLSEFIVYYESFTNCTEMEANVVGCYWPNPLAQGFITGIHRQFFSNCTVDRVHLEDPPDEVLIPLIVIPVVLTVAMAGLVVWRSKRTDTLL

[2] = molecular target: T2, human calcitonin receptor (Homo sapiens, UniProt P30988); experiment: Assay (II)a functional CRE-luciferase assay, human calcitonin receptor; format: cell-based; settings: Table 7; human calcitonin (CTa) receptor
T2 construct: expressed in transfected cells; host or cells: BHK570
T2 sequence (P30988 25-474): T1 sequence (P30988 25-474)

[3] = Assay (III) ThT fibrillation assay for physical stability; format: physicochemical
Outline: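 Freshly prepared formulations, pH-adjusted, with 1 μM ThT; four or eight replicates incubated at 37 °C under 960 rpm orbital shaking. Fluorescence (ex 444/em 485 nm) read every 20 min; […]. Peptide concentration measured by RP-HPLC before and after the run.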

[4] = Assay (IV) determination of solubility; format: physicochemical
Outline: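 Eight 100 mM buffers (glycylglycine pH 3.0–5.0, bistrispropane pH 6.0–8.0) each received an equal volume of polypeptide dissolved in water at ~500 nmol/ml. Soluble polypeptide was measured by HPLC following 18 hours at room temperature and centrifugation.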

[5] = bistrispropane buffer, pH 6, pH 6.0, read-out: Solubility pH 6.0
[6] = bistrispropane buffer, pH 6.5, pH 6.5, read-out: Solubility pH 6.5
[7] = bistrispropane buffer, pH 7, pH 7.0, read-out: Solubility pH 7.0
[8] = bistrispropane buffer, pH 7.5, pH 7.5, read-out: Solubility pH 7.5
[9] = bistrispropane buffer, pH 8, pH 8.0, read-out: Solubility pH 8.0
[10] = glycylglycine buffer, pH 3, pH 3.0, read-out: Solubility pH 3.0
[11] = glycylglycine buffer, pH 4, pH 4.0, 18 hours at room temperature, Table 2, read-out: Solubility pH 4.0
[12] = glycylglycine buffer, pH 4, pH 4.0, read-out: Solubility pH 4.0
[13] = glycylglycine buffer, pH 5, pH 5.0, read-out: Solubility pH 5.0

| SMILES | EC50 [1] [nM] | EC50 [2] [nM] | ThT pH 4.0 lag time ([3]; Table 8) [h] | ThT pH 4.0 lag time ([3]; Table 9) [h] | ThT pH 4.0 lag time ([3]; ThT fibrillation assay) [h] | ThT pH 4.0 lag time (h) ([3]; ThT fibrillation assay) | solubility at 18 h [4, 5] [µM] | solubility at 18 h [4, 6] [µM] | solubility at 18 h ([4]; bistrispropane buffer, pH 7, pH 7.0, 18 hours at room temperature, Table 3, read-out: Solubility pH 7.0) [µM] | solubility at 18 h ([4]; bistrispropane buffer, pH 7, pH 7.0, Table 8, read-out: Solubility pH 7.0) [µM] | solubility at 18 h ([4]; bistrispropane buffer, pH 7, pH 7.0, Table 9, read-out: Solubility pH 7.0) [µM] | solubility at 18 h [4, 7] [µM] | solubility at 18 h ([4]; bistrispropane buffer, pH 7.5, pH 7.5, Table 9, read-out: Solubility pH 7.5) [µM] | solubility at 18 h [4, 8] [µM] | solubility at 18 h [4, 9] [µM] | solubility at 18 h [4, 10] [µM] | solubility at 18 h [4, 11] [µM] | solubility at 18 h [4, 12] [µM] | solubility at 18 h [4, 13] [µM] |
| --- | --- | --- | --- | --- | --- | --- | --- | --- | --- | --- | --- | --- | --- | --- | --- | --- | --- | --- | --- |
| CC[C@H](C)[C@H](NC(=O)[C@@H]1CCCN1C(=O)CNC(=O)[C@H](Cc1ccccc1)NC(=O)[C@H](CC(N)=O)NC(=O)[C@H](CC(N)=O)NC(=O)[C@H](CO)NC(=O)[C@H](CO)NC(=O)[C@H](Cc1c[nH]cn1)NC(=O)[C@H](Cc1c[nH]cn1)NC(=O)[C@H](CC(C)C)NC(=O)[C@H](Cc1ccccc1)NC(=O)[C@H](CCC(=O)O)NC(=O)[C@H](C)NC(=O)[C@H](CC(C)C)NC(=O)[C@H](CCCNC(=N)N)NC(=O)[C@H](CCC(N)=O)NC(=O)[C@@H](NC(=O)[C@H](C)NC(=O)[C@@H]1CSSC[C@H](NC(=O)[C@H](CCCCN)NC(=O)CC[C@H](NC(=O)CCCCCCCCCCCCCCCCCCC(=O)O)C(=O)O)C(=O)N[C@@H](CC(N)=O)C(=O)N[C@@H]([C@@H](C)O)C(=O)N[C@@H](C)C(=O)N[C@@H]([C@@H](C)O)C(=O)N1)[C@@H](C)O)C(=O)N[C@@H](CC(C)C)C(=O)N1CCC[C@H]1C(=O)N1CCC[C@H]1C(=O)N[C@H](C(=O)N[C@@H](CC(N)=O)C(=O)N[C@H](C(=O)NCC(=O)N[C@@H](CO)C(=O)N[C@@H](CCC(N)=O)C(=O)N[C@H](C(=O)N1CCC[C@H]1C(N)=O)[C@@H](C)O)C(C)C)[C@@H](C)O [Example 135, N-alpha-[(S)-4-Carboxy-4-(19-carboxynonadecanoylamino)butyryl]-[Glu14,His17,Gln35,Pro37]-pramlintide] ({C20 diacid-γGlu}-KCNTATCATQRLAEFLHHSSNNFGPILPPTNVGSQTP-NH2; disulfide 2-7 (inferred)) | 0.103 | 0.097 | >45 | >45 | >45 | >45 | > 200 | > 200 | > 200 | > 200 | > 200 | > 200 | > 200 | > 200 | > 200 | > 200 | > 200 | > 200 | > 200 |
| CC[C@H](C)[C@H](NC(=O)[C@@H]1CCCN1C(=O)CNC(=O)[C@H](Cc1ccccc1)NC(=O)[C@H](CC(N)=O)NC(=O)[C@H](CC(N)=O)NC(=O)[C@H](CO)NC(=O)[C@H](CO)NC(=O)[C@H](Cc1c[nH]cn1)NC(=O)[C@H](Cc1c[nH]cn1)NC(=O)[C@H](CC(C)C)NC(=O)[C@H](Cc1ccccc1)NC(=O)[C@H](CCC(=O)O)NC(=O)[C@H](C)NC(=O)[C@H](CC(C)C)NC(=O)[C@H](CCCNC(=N)N)NC(=O)[C@H](CCC(N)=O)NC(=O)[C@@H](NC(=O)[C@H](C)NC(=O)[C@@H]1CSSC[C@H](NC(=O)[C@H](CCCCN)NC(=O)[C@H](CCC(=O)O)NC(=O)[C@H](CCC(=O)O)NC(=O)CC[C@H](NC(=O)CCCCCCCCCCCCCCCCCCC(=O)O)C(=O)O)C(=O)N[C@@H](CC(N)=O)C(=O)N[C@@H]([C@@H](C)O)C(=O)N[C@@H](C)C(=O)N[C@@H]([C@@H](C)O)C(=O)N1)[C@@H](C)O)C(=O)N[C@@H](CC(C)C)C(=O)N1CCC[C@H]1C(=O)N1CCC[C@H]1C(=O)N[C@H](C(=O)N[C@@H](CC(N)=O)C(=O)N[C@H](C(=O)NCC(=O)N[C@@H](CO)C(=O)N[C@@H](CC(N)=O)C(=O)N[C@H](C(=O)N[C@@H](Cc1ccc(O)cc1)C(N)=O)[C@@H](C)O)C(C)C)[C@@H](C)O [Example 41, N-alpha-[(S)-4-Carboxy-4-(19-carboxynonadecanoylamino)butyryl]-Glu-Glu-[Glu14,His17]-pramlintide] ({C20 diacid-γGlu}-EEKCNTATCATQRLAEFLHHSSNNFGPILPPTNVGSNTY-NH2; disulfide 4-9 (inferred)) | 0.402 | 0.798 | – | – | – | 0 | 1 (≈ 4.71 µg/mL) | 1 (≈ 4.71 µg/mL) | – | – | – | 1 (≈ 4.71 µg/mL) | – | 1 (≈ 4.71 µg/mL) | 4 (≈ 18.9 µg/mL) | > 200 | 118 (≈ 556 µg/mL) | 118 (≈ 556 µg/mL) | 1 (≈ 4.71 µg/mL) |
| CC[C@H](C)[C@H](NC(=O)[C@@H]1CCCN1C(=O)CNC(=O)[C@H](Cc1ccccc1)NC(=O)[C@H](CC(N)=O)NC(=O)[C@H](CC(N)=O)NC(=O)[C@H](CO)NC(=O)[C@H](CO)NC(=O)[C@H](Cc1c[nH]cn1)NC(=O)[C@H](Cc1c[nH]cn1)NC(=O)[C@H](CC(C)C)NC(=O)[C@H](Cc1ccccc1)NC(=O)[C@H](CCC(=O)O)NC(=O)[C@H](C)NC(=O)[C@H](CC(C)C)NC(=O)[C@H](CCCNC(=N)N)NC(=O)[C@H](CCC(N)=O)NC(=O)[C@@H](NC(=O)[C@H](C)NC(=O)[C@@H]1CSSC[C@H](NC(=O)[C@H](Cc2c[nH]cn2)NC(=O)[C@H](Cc2c[nH]cn2)NC(=O)[C@H](Cc2c[nH]cn2)NC(=O)CC[C@H](NC(=O)CCCCCCCCCCCCCCCCCCC(=O)O)C(=O)O)C(=O)N[C@@H](Cc2c[nH]cn2)C(=O)N[C@@H]([C@@H](C)O)C(=O)N[C@@H](C)C(=O)N[C@@H]([C@@H](C)O)C(=O)N1)[C@@H](C)O)C(=O)N[C@@H](CC(C)C)C(=O)N1CCC[C@H]1C(=O)N[C@@H](Cc1c[nH]cn1)C(=O)N[C@H](C(=O)N[C@@H](CC(N)=O)C(=O)N[C@H](C(=O)NCC(=O)N[C@@H](CO)C(=O)N[C@@H](Cc1c[nH]cn1)C(=O)N[C@H](C(=O)N[C@@H](Cc1ccc(O)cc1)C(N)=O)[C@@H](C)O)C(C)C)[C@@H](C)O [Example 33, N-alpha-[(S)-4-Carboxy-4-(19-carboxynonadecanoylamino)butyryl]-His-His-[His1,His3,Glu14,His17,His29,His35]-pramlintide] ({C20 diacid-γGlu}-HHHCHTATCATQRLAEFLHHSSNNFGPILPHTNVGSHTY-NH2; disulfide 4-9 (inferred); C-terminus assumed) | 1.03 | 0.484 | – | – | – | 10 | > 200 | 17 (≈ 82 µg/mL) | – | – | – | – | – | – | 16 (≈ 77.2 µg/mL) | > 200 | > 200 | > 200 | > 200 |
| CC[C@H](C)[C@H](NC(=O)[C@@H]1CCCN1C(=O)CNC(=O)[C@H](Cc1ccccc1)NC(=O)[C@H](CC(N)=O)NC(=O)[C@H](CC(N)=O)NC(=O)[C@H](CO)NC(=O)[C@H](CO)NC(=O)[C@H](Cc1c[nH]cn1)NC(=O)[C@H](CCCNC(=N)N)NC(=O)[C@H](CC(C)C)NC(=O)[C@H](Cc1ccccc1)NC(=O)[C@H](CCC(=O)O)NC(=O)[C@H](C)NC(=O)[C@H](CC(C)C)NC(=O)[C@H](CCCNC(=N)N)NC(=O)[C@H](CCC(N)=O)NC(=O)[C@@H](NC(=O)[C@H](C)NC(=O)[C@@H]1CSSC[C@H](NC(=O)[C@H](CCCCN)NC(=O)[C@H](Cc2c[nH]cn2)NC(=O)[C@H](Cc2c[nH]cn2)NC(=O)CC[C@H](NC(=O)CCCCCCCCCCCCCCCCCCC(=O)O)C(=O)O)C(=O)N[C@@H](CC(N)=O)C(=O)N[C@@H]([C@@H](C)O)C(=O)N[C@@H](C)C(=O)N[C@@H]([C@@H](C)O)C(=O)N1)[C@@H](C)O)C(=O)N[C@@H](CC(C)C)C(=O)N1CCC[C@H]1C(=O)N1CCC[C@H]1C(=O)N[C@H](C(=O)N[C@@H](CC(N)=O)C(=O)N[C@H](C(=O)NCC(=O)N[C@@H](CO)C(=O)N[C@@H](Cc1c[nH]cn1)C(=O)N[C@H](C(=O)N[C@@H](Cc1ccc(O)cc1)C(N)=O)[C@@H](C)O)C(C)C)[C@@H](C)O [Example 69, N-alpha-[(S)-4-Carboxy-4-(19-carboxynonadecanoylamino)butyryl]-His-His-[Glu14,Arg17,His35]-pramlintide] ({C20 diacid-γGlu}-HHKCNTATCATQRLAEFLRHSSNNFGPILPPTNVGSHTY-NH2; disulfide 4-9 (inferred)) | 0.101 | 0.615 | – | – | >45 | >45 | > 200 | 158 (≈ 754 µg/mL) | – | – | – | 6 (≈ 28.6 µg/mL) | – | 2 (≈ 9.54 µg/mL) | 24 (≈ 115 µg/mL) | > 200 | > 200 | > 200 | > 200 |
